US8106096B2, “Compositions and methods for treatment of optic nerve diseases” (University of Maryland, Baltimore, priority 2008, dated 2012)
“Also recorded” adds a separate entry of the source.

Experiments:
[1] = test system: ED-1(+) extrinsic macrophages; experiment: Extrinsic macrophage (ED-1(+)) recruitment into ON after rAION induction; assay type: in vivo, rodent
From the text: The present inventor has evaluated the location of early ON-macrophage activity following rAION induction, using antibodies for both general cellular inflammation (IBA-1) and extrinsic macrophages (detected by antibody to ED-1). […] Few, if any extrinsic macrophages are present in normal uninfarcted ON (results not shown). Following rAION induction, ED-1(+) extrinsic macrophages enter the ON and cluster in the primary ischemic lesion site immediately behind the retina/ON junction. Little extrinsic macrophage infiltration occurs >250 microns post-ON/retina junction. […] Control (vehicle treated animals) show a similar pattern (data not shown). […] Extrinsic macrophages extend beyond the initial lesion site, even during early axonal degeneration occurring 6 days post-induction. Thus, it is possible to administer intraventricular GM-CSF to recruit extrinsic macrophages into the ON following rAION, and determine whether the macrophage recruitment approach is useful to enhancing ON-axonal repair and regeneration following ON infarct.

optic nerve (ON) edema = experiment: ON edema after rAION by direct fundus observation in the living animal; assay type: in vivo, rat; settings: post-infarct administration (systemic and intravitreal), first 3 days post-induction; 1-3 days following rAION
From the text: PGJ2-treated animals have 72.4% of the number of naïve RGCs compared with 34.3 for vehicle treated animals (black bar, FIG. 2).

[2] = test system: retinal ganglion cells (RGC); experiment: Stereological analysis of RGC numbers after rAION (ON stroke); assay type: in vivo, rat
Experimental: Stereological analysis of RGC numbers in naïve and rAION induced rat retinae treated with either PGJ2 or Vehicle (PBS). Animals were injected IV 1Xd for 3 days with either 100 mg/kg PGJ2 or PBS-vehicle. Animals were euthanized and retinae analyzed 30 days post-rAION induction. Average numbers based on 4 retinae/group; RGC stereology derived from Brn3a (+) RGC immunostaining.
Statistical analysis of 15-deoxy delta (12,14) PGJ2 administration to rats after optic nerve (ON) stroke. […] The ordinate represents the number of retinal ganglion cells in each retina. The abscissa represents the number of fields of cells counted to reach a statistically valid number as determined by the field of stereology. The green line represents the typical number of retinal ganglion cells in the untreated (naïve; no stroke) rat retina. The response of rat retina and optic nerve to vehicle treatment is shown in yellow. The response of PGJ2 treated animals is shown in Blue.
rAION-associated cell loss is analyzed using stereological analysis.
Rats were used for this experiment and ON stroke was administered to a 75% predicted loss of RGCs by the method of Bernstein et al., 2003, supra. RGC's were counted in each retina in the untreated (naïve; no stroke) and rats with rAION treated with PGJ2.

GM-CSF: Granulocyte-Macrophage Colony Stimulating Factor; directly activates macrophages and recruits extrinsic macrophages
numbers of ED-1(+) cells in ON ([1]; 1 ug stereotactically injected into the superior colliculus, 6 days post-induction, vehicle controls show a similar pattern): decreased numbers of ED-1(+) cells
recruitment of ED-1(+) cells in rAION-induced ONs ([1]; intraventricular injection, data not shown): significantly enhanced recruitment of ED-1(+) cells
ability to recruit extrinsic macrophages ([1]; rAION, IBA-1 and ED-1 antibodies, data not shown): has the ability to recruit extrinsic macrophages

CCCCC/C=C/C=C1/C(=O)C=C[C@@H]1C/C=C\CCCC(=O)O [PGJ2, 15 deoxy delta 12,14 prostaglandin J2]
ON edema (optic nerve (ON) edema): reduced gross ON edema; also recorded: reduces ON edema
RGC survival ([2]; 30 days post-rAION induction): increased RGC survival
number of RGCs relative to naïve RGCs ([2]; rat rAION, IV 1Xd for 3 days, 100 mg/kg, 30 days post-rAION induction, Brn3a(+) RGC stereology): 72.4%
preservation of the neurons whose axons comprise the optic nerve ([2]; rats, ON stroke to a 75% predicted loss of RGCs, PGJ2 treatment after stroke): 35-50%
